We go through 2 molecules from patent publication US20160354443A1, “Replacement Therapy for Natriuretic Peptide Deficiencies” (priority 2014, published 2016).

One may read the Emax as the greatest response seen or fitted, relative to the assay's reference.

For data set [1] the following is noted: Potter et al. 2009; cited from earlier work.
A further data set has as its target T1, rat NPRA (Rattus norvegicus, UniProt P18910).
T1 construct: expressed in transfected cells; host or cells: HEK cell line
T1 sequence (P18910 29-1057): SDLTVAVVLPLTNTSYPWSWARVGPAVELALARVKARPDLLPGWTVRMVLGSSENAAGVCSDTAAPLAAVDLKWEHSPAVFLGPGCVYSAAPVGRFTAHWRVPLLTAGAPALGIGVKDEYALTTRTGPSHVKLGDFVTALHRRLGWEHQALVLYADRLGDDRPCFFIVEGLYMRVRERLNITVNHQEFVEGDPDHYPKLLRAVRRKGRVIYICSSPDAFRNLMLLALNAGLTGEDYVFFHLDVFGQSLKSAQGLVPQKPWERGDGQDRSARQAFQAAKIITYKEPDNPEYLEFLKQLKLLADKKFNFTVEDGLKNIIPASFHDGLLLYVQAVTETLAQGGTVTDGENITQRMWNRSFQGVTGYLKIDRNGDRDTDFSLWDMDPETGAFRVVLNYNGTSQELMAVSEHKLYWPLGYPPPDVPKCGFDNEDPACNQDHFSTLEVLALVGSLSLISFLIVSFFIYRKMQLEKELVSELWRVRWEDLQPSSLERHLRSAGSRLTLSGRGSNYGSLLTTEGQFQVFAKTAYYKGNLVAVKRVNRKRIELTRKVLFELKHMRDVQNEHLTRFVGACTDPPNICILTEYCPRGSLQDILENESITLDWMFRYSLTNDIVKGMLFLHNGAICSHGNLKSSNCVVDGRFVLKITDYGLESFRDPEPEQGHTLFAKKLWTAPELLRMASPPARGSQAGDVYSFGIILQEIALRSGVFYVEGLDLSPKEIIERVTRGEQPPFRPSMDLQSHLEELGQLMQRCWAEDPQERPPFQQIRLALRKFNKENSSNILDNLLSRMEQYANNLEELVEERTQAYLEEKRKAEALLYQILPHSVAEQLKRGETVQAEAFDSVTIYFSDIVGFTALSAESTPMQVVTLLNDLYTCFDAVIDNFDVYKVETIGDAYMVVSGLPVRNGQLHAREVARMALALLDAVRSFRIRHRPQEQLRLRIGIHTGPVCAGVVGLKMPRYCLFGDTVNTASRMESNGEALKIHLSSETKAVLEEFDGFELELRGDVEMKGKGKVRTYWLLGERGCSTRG
As to the kind of experiment: cGMP generation in HEK cells expressing rat NPRA. The following applies: mean ± SD. The format is cell-based.

The next data set has as its system plasma cGMP. Put plainly: Safety study in healthy volunteers: pharmacodynamic parameters (plasma cGMP). The format is in vivo, human. Conditions: mean ± SD. The protocol:
(§1) In a safety study, the mimetic of formula IV was administered to healthy volunteers. Doses of 0.1, 0.3, 0.7 and 1.0 μg/kg of the mimetic of formula IV were administered.
(§2) Kel is the apparent terminal elimination rate constant, calculated by linear regression of the terminal linear portion of the log concentration versus the time curve. The plasma cGMP concentrations returned to baseline levels by approximately 8 hours after dosing following 0.7 μg/kg and 1.0 μg/kg of the mimetic of formula IV.

Assay in data set [2]: as above
The format is in vivo, human. Conditions: human, in vivo, mean ± SD, read-out: t½ (converted). The procedure:
as §1, §2

The target in the next data set is T2, hNPRB (human NPRB) (Homo sapiens, UniProt P20594).
T2 construct: expressed in transfected cells; host or cells: HEK cell line
T2 sequence (P20594 23-1047): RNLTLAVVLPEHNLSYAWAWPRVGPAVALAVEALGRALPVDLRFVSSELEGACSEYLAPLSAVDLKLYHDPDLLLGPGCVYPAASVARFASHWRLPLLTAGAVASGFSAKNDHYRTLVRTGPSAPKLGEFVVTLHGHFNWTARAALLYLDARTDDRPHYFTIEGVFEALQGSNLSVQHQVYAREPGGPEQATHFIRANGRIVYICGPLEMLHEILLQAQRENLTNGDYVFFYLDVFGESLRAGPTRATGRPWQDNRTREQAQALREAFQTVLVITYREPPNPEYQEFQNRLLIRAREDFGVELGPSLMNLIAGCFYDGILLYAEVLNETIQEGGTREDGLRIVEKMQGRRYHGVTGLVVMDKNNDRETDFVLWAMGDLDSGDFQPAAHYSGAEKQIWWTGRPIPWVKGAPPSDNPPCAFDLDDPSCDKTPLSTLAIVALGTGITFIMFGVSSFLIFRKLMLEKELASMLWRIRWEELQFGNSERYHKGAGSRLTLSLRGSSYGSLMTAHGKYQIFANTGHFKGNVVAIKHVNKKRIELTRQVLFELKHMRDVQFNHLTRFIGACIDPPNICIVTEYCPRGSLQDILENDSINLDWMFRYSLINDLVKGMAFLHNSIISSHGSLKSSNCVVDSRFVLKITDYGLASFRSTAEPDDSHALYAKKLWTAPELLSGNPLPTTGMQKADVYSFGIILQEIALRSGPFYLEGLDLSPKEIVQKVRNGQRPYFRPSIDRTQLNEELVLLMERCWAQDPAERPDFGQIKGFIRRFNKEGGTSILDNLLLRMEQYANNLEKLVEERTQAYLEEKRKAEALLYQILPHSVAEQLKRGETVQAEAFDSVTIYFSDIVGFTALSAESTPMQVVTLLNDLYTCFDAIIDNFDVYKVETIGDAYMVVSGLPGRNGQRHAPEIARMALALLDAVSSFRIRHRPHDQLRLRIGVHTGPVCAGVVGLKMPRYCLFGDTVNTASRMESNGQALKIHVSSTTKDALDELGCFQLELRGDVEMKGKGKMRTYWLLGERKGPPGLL
Put plainly: NPRB functional assay (cGMP generation) in HEK cell line. The format is cell-based. Conditions: HEK293, mean ± SD, read-out: hNPRB Function (cGMP) Emax (%).

In the next data set the target is T3, human NPRA (Homo sapiens, UniProt P16066).
T3 sequence (P16066 33-1061): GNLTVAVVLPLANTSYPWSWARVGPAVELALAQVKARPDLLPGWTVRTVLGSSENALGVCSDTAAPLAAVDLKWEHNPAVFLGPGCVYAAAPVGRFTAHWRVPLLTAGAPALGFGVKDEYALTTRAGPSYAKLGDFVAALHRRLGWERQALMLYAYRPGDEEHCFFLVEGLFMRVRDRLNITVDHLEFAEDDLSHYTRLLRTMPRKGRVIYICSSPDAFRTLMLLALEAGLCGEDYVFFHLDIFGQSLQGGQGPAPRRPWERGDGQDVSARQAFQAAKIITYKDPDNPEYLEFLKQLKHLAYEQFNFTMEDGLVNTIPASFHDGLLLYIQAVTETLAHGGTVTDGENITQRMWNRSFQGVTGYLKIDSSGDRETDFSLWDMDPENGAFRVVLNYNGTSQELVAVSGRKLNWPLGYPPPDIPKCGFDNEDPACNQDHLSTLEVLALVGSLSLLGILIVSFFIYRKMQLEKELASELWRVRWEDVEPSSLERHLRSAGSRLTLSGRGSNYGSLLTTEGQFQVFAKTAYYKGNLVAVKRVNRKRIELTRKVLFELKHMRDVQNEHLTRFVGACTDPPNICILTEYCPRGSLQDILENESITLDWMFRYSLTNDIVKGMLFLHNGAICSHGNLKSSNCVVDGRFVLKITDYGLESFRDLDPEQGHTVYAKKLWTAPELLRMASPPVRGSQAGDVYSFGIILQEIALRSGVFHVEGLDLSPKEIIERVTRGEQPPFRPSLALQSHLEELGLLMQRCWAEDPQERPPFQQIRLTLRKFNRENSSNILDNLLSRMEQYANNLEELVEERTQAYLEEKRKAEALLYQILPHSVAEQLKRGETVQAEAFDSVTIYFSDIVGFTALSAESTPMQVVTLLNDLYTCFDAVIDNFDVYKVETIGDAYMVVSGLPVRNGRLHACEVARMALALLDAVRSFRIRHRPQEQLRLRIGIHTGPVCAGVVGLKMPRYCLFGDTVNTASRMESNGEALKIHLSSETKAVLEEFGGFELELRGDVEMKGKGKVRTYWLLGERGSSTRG
As to the kind of experiment: cGMP generation in HEK cells expressing human NPRA. The format is cell-based. The following applies: mean ± SD.

A short description of data set [3]: Human clinical trial, subcutaneous formulation: half life. The following applies: in vivo, sc, subcutaneously administered formulation. The procedure:
In a human clinical trial of a subcutaneously administered formulation in which the mimetic of formula IV was the active pharmaceutical ingredient, the half life of the mimetic of formula IV was determined to be approximately 3 hours. The mimetic of formula IV lead to a mean peak increase in plasma cGMP concentration of 1.7 ng/mL at a dose of 0.3 μg/kg of the mimetic of formula IV as a single, subcutaneous injection.

Positions of bridges follow the written chain, without caps; N, C: chain ends. Non-standard residues stand in square brackets, D forms with d. Residues, ends and D or L forms follow the SMILES beside them. *: point of attachment. X1 = N=C(N)NCCC[C@H]1C(=O)N[C@@H](C(N)=O)CN1*; dNle = CCCC[C@@H](N)C(=O)O; Heptanoyl = CCCCCCC(=O)*

Method for human NPRA: Functional evaluation of natriuretic peptide mimetics was performed by measuring the accumulation of intracellular cGMP in HEK-293 cells that express recombinant hNPR-A. HEK-NPRA cells were harvested by washing and centrifugation in Cell Dissociation Buffer (Gibco, Life Technologies). Pelleted cells were resuspended in Hank's Balanced Salt Solution (HBSS) containing 10 mM Hepes (pH 7.4), 5 mM MgCl2, 200 mM L-glutamine, 1 mM 1,10-phenanthroline and BSA (0.5 mg/mL). Following centrifugation, cells were resuspended in the above buffer supplemented with 0.5 mM 3-isobutyl-1-methylxanthine (IBMX). […] The reaction was terminated by lysis of the cells with temperature shock. […] Accumulation of cGMP was measured using the cGMP Flashplate RIA (Perkin-Elmer). Data analysis and EC50 values were determined by using nonlinear regression analysis with GraphPad Prism® software.

In the case of `CC[C@H](C)[C@@H]1NC(=O)[C@H](CCCNC(=N)N)NC(=O)[C@H](CC(=O)O)NC(=O)[C@H](CC(C)C)NC(=O)[C@H](CCCCN)NC(=O)[C@H](CC(C)C)NC(=O)CNC(=O)[C@H](Cc2ccccc2)NC(=O)[C@@H](NC(=O)CNC(=O)[C@H](CCCCN)NC(=O)[C@H](CO)NC(=O)[C@H](CC(C)C)NC(=O)CN)CSSC[C@@H](C(=O)O)NC(=O)CNC(=O)[C@H](CC(C)C)NC(=O)CNC(=O)[C@H](CO)NC(=O)[C@H](CCSC)NC(=O)[C@H](CO)NC(=O)CNC1=O` [hCNP], the “reported human plasma half-life” value in data set [1] was “about 2 minutes”.

`CCCCCCC(=O)N[C@H]1CSSC[C@@H](C(=O)N[C@@H](Cc2ccc(O)cc2)C(=O)N2C[C@H](C(N)=O)NC(=O)[C@@H]2CCCNC(=N)N)NC(=O)[C@H](CO)NC(=O)[C@H]([C@@H](C)CC)NC(=O)[C@H](CCCNC(=N)N)NC(=O)[C@H](CC(=O)O)NC(=O)[C@@H](CCCC)NC(=O)[C@H](CCCNC(=N)N)NC(=O)CNC(=O)[C@@H](C)NC(=O)[C@H](Cc2ccccc2)NC(=O)[C@H](Cc2c[nH]cn2)NC1=O` [mimetic of formula IV] (Heptanoyl-CHF[dA]GR[dNle]DRISCY-X1; disulfide 1-12): the results for the “Function (cGMP) Emax (% of ANP response)” value at rat NPRA and on human NPRA (human NPRA) were 98 ± 7 % of ANP response and 94 ± 8 % of ANP response, respectively. The “Kel (apparent terminal elimination rate constant)” value in the data set on plasma cGMP (dose 0.7 μg/kg) was 0.231 ± 0.025 h⁻¹; in the data set on plasma cGMP (dose 1.0 μg/kg), 1.05 ± 1.22 h⁻¹. For the same molecule, the half-life is 182 ± 20.7 min in data set [2] (0.7 ug/kg), 179 ± 217 min in data set [2] (1 ug/kg) and about 180 min in data set [3]. Moreover, the Emax at hNPRB (human NPRB) was 1 ± 1%; on human NPRA (HEK293, hNPRA, read-out: hNPRA Function (cGMP) Emax (%)) it was 94 ± 8%.
